Data from patent US9447132B2 (priority 2013, dated 2016).
Marks after values point to notes of the source that are not given here.

Tests used:
[1] = system: HCV; conditions: several large clinical trials; cited from earlier work
[2] = system: HCV genotype 1, 2 or 3; conditions: once-daily 300 mg for seven days, treatment naïve patients; cited from earlier work
[3] = system: Cynomolgus monkey liver hepatocyte; test: Half-life of active triphosphate in monkey hepatocytes; type: in vitro ADME; conditions: parenthesis = 95% confidence interval
Description: (§1) Human hepatocyte cells used for half-life determinations were human liver hepatocyte 12-well format cells and were seeded at 0.67 million cells per well. Canine hepatocyte cells used for half-life determinations were beagle dog liver hepatocyte 12-well format cells and were seeded at 0.67 million cells per well. Monkey hepatocyte cells used for half-life determinations were Cynomolgus monkey liver hepatocyte 12-well format cells, and were seeded at 0.9 million cells per well. Rat hepatocyte cells for half-life determinations were Sprague-Dawley (SD) rat liver hepatocyte 12-well format cells, and were seeded at 0.67 million cells per well. All cells were obtained from Life Technologies.

[4] = system: Sprague-Dawley (SD) rat liver hepatocyte; test: Half-life of active triphosphate in rat hepatocytes; type: in vitro ADME; conditions: parenthesis = 95% confidence interval
Description: as §1

[5] = system: human liver hepatocytes; test: Triphosphate levels (Formula IV, GS-7977-TP) in human hepatocytes; type: in vitro ADME; conditions: for time at which peak levels were obtained: 5 μM parent, 48 hours of incubation
Description: […] Cells were washed twice with cold PBS.
Supernatants were removed and analyzed by LC-MS/MS. […] Samples were centrifuged at 3000 rpm for 15 minutes. Supernatants were removed and analyzed by LC-MS/MS.

[6] = system: primary hepatocytes; test: Formula IV concentration from Formula II dosing in primary hepatocytes; type: in vitro ADME, human
From the text: The general methods of Example 13 were used to determine compound concentrations.

[7] = system: hepatocytes (human, dog, monkey and rat); test: Half-lives of active triphosphate in hepatocytes from four species; type: in vitro ADME; conditions: across hepatocytes from four species (human, dog, monkey, rat)
Description: as §1

[8] = system: human liver hepatocyte; test: Half-life of active triphosphate in human hepatocytes; type: in vitro ADME; conditions: for t1/2 (hr): Human hepatocytes, parenthesis = 95% confidence interval
Description: as §1

[9] = system: beagle dog liver hepatocyte; test: Half-life of active triphosphate in dog hepatocytes; type: in vitro ADME; conditions: parenthesis = 95% confidence interval
Description: as §1

[10] = system: HCV genotype 1; conditions: cited from earlier work
[11] = system: HCV replicon; test: Predicted EC50 against HCV replicon in primary human hepatocytes; type: cell-based; conditions: Hepatitis C virus, Hepatocyte
[12] = Buffer stability (stability of the compounds in the absence of cells); type: physicochemical; conditions: 24 hr
[13] = 2 hr incubation with 5 μM Formula II
[14] = 4 hr incubation with 5 μM Formula II
[15] = 8 hr incubation with 5 μM Formula II
[16] = 25 hr incubation with 5 μM Formula II
[17] = 48 hr incubation with 5 μM Formula II

Structure (SMILES): CC(C)OC(=O)[C@H](C)N[P@](=O)(OC[C@H]1O[C@@H](n2ccc(=O)[nH]c2=O)[C@@](C)(F)C1O)Oc1ccccc1 (stereo partly drawn) [Sovaldi, Sofosbuvir]
- sustained viral response (SVR) of twelve weeks, trial participants [1]: 50-90%

Structure (SMILES): CC(C)OC(=O)[C@@H](C)N[P@@](=O)(OC[C@H]1O[C@@H](n2ccc(=O)[nH]c2=O)[C@](C)(Cl)[C@@H]1O)Oc1ccccc1 [IDX21437]
- mean maximum reduction in viral load [2]: 4.2-4.3 log 10 IU/mL

Structure (SMILES): C[C@]1(O)C(n2ccc(=O)[nH]c2=O)OC(COP(=O)(O)OP(=O)(O)OP(=O)(O)O)[C@H]1O (stereo partly drawn) [Formula IV]
- t1/2 (hr) [3]: 14.5 (11.8-18.9) hr
- t1/2 (hr) [4]: 10.2 (8.6-12.5) hr
- time at which peak levels were obtained ([5]; human hepatocytes): > 48 h
- Formula IV (pmol/million cells) rep 1 [5, 13]: 72.1 pmol/million cells
- Formula IV (pmol/million cells) rep 2 [5, 13]: 71.5 pmol/million cells
- Formula IV (pmol/million cells) rep 3 [5, 13]: 67.9 pmol/million cells
- Formula IV (pmol/million cells) rep 1 [5, 14]: 130 pmol/million cells
- Formula IV (pmol/million cells) rep 2 [5, 14]: 129 pmol/million cells
- Formula IV (pmol/million cells) rep 3 [5, 14]: 129 pmol/million cells
- Formula IV (pmol/million cells) rep 1 [5, 15]: 218 pmol/million cells
- Formula IV (pmol/million cells) rep 2 [5, 15]: 217 pmol/million cells
- Formula IV (pmol/million cells) rep 3 [5, 15]: 236 pmol/million cells
- Formula IV (pmol/million cells) Mean+StDev [5, 16]: 486 pmol/million cells
- Formula IV (pmol/million cells) rep 1 [5, 16]: 506 pmol/million cells
- Formula IV (pmol/million cells) rep 2 [5, 16]: 465 pmol/million cells
- Formula IV (pmol/million cells) rep 3 [5, 16]: 488 pmol/million cells
- Formula IV (pmol/million cells) rep 1 [5, 17]: 619 pmol/million cells
- Formula IV (pmol/million cells) rep 2 [5, 17]: 581 pmol/million cells
- Formula IV (pmol/million cells) rep 3 [5, 17]: 575 pmol/million cells
- Formula IV concentration higher than in Huh-luc/neo cells ([6]; 50 nM Formula II, primary hepatocytes vs Huh-luc/neo cells): 5- to 8 fold
- level of Formula IV ([6]; Formula II at 50 nM, primary hepatocytes, 24 hours): 9.2-16.2 pmol/million cells
- half-lives range [7]: 10 to 30 h
- t1/2 (hr) [8]: 27.6 (26.0-29.4)^a hr
- half-life ([8]; human hepatocytes): > 24 h
- t1/2 (hr) [9]: 29.6 (22.0-45.4) hr

Structure (SMILES): CC(C)OC(=O)[C@H](C)NP(=S)(OC[C@H]1O[C@@H](n2ccc(=O)[nH]c2=O)[C@](C)(O)[C@@H]1O)Oc1ccccc1 (stereo partly drawn) [VX-135]
- completion of treatment rate (SVR4) ([10]; eleven patients who completed 12 weeks of treatment, with daclatasvir): 91%
- sustained viral response rate four weeks after completion of treatment (SVR4) ([10]; intent-to-treat, treatment-naïve genotype 1, 200 mg VX-135 in combination with daclatasvir): 83%

Structure (SMILES): C[C@@]1(F)[C@H](O)[C@@H](COP(=O)(O)OP(=O)(O)OP(=O)(O)O)O[C@H]1n1ccc(=O)[nH]c1=O [GS-7977-TP, reference compound]
- t1/2 (hr) [3]: 9.3 (7.9-11.4) hr
- t1/2 (hr) [4]: 7.6 (6.4-9.3) hr
- time at which peak levels were obtained ([5]; human hepatocytes): 24 h
- intracellular conversion to triphosphate, greater than that of Formula IV from Formula II ([5]; over a 48 hour period, 5 μM, human hepatocytes): 2 fold
- half-lives range [7]: 8 to 23 h
- t1/2 (hr) [8]: 22.6 (21.5-23.9) hr
- t1/2 (hr) [9]: 17.7 (15.0-21.5) hr

Structure (SMILES): [2H]c1cn([C@@H]2O[C@H](C([2H])([2H])OP(=O)(N[C@@H](C)C(=O)OC(C)C)Oc3ccccc3)[C@@H](O)[C@@]2(C)O)c(=O)[nH]c1=O (stereo partly drawn) [Formula II]
- EC50 [11]: 6.25 to 10 nM
- Buffer Stability Parent T24 hr 37° C. ([12]; Table 1): 97
- Buffer Stability Parent T24 hr 37° C. ([12]; Table 2): 97
